Entries after “also recorded” stand apart in the source; their conditions may differ. Read-outs that look alike come from different tables or passages of the source.
Tests used:
Assay type in all cases: cell-based
HeLa cells = test system: HeLa cells
MRCS cells = test system: MRCS cells
A549 cells [1] = test system: A549 cells
293T cells = test system: 293T cells
A549 cells [2] = test system: A549 cells; remark: listed apart in the source
A549 cells [3] = test system: A549 cells; remark: listed apart in the source
[4] = test system: 293T cell, HUVEC cell, HCT-116 cell, MKN-45 cell, MRCS cell, U397 cell and ESF-1 cell
A549 cells [5] = test system: A549 cells; remark: listed apart in the source
HEK293T cells = test system: HEK293T cells
A549 cells [6] = test system: A549 cells; remark: listed apart in the source
[7] = test system: 3′ UTR region of RELA gene
A549 cells [8] = test system: A549 cells; remark: listed apart in the source
A549 cells [9] = test system: A549 cells; remark: listed apart in the source

With “CIYRRLKYGLKRGPSTEG [Jilin-2004(H5N1)-M2-50-67]” the cell penetration properties (HeLa cells) was “consistent with the results obtained using A549 cells”, the cell penetration properties (MRCS cells) was “consistent with the results obtained using A549 cells” and the cell entry (A549 cells [1]) was “entered A549 cells”. For the same sequence, the “cell entry at lower concentrations” value (A549 cells [1]) was “could still enter A549 cells”.

In the case of “DRFFFKRIYRRLKYRLKRRPKV [Jilin-2004(H5N1)-M2-44-65 mut9]”, the “cell-penetrating peptide function compared with the parent polypeptide” value (MRCS cells) is reported as “stronger than that of the parent Jilin-2004(H5N1)-M2-44-65 polypeptide”, the “cell-penetrating peptide function compared with the parent polypeptide” value (293T cells) is reported as “stronger than that of the parent Jilin-2004(H5N1)-M2-44-65 polypeptide” and the “cell-penetrating peptide function compared with the parent polypeptide” value (A549 cells [1]) is reported as “stronger than that of the parent Jilin-2004(H5N1)-M2-44-65 polypeptide”.

In the case of “DRFFFKRIFRRFKFRLKRRPST [Jilin-2004(H5N1)-M2-44-65 mut12]”, the “cell-penetrating peptide function compared with the parent polypeptide” value (MRCS cells) is reported as “stronger than that of the parent Jilin-2004(H5N1)-M2-44-65 polypeptide”, the “cell-penetrating peptide function compared with the parent polypeptide” value (293T cells) is reported as “stronger than that of the parent Jilin-2004(H5N1)-M2-44-65 polypeptide” and the “cell-penetrating peptide function compared with the parent polypeptide” value (A549 cells [1]) is reported as “stronger than that of the parent Jilin-2004(H5N1)-M2-44-65 polypeptide”.

For “RLFFRRIYRRLRYRLRRG [Jilin-2004(H5N1)-M2-45-62 mut5]”, the “ability to carry small RNA into cells compared with the transfection reagent RNAiMax group, qPCR” value (A549 cells [2]) was “stronger than the transfection reagent RNAiMax group” and the “cell-penetrating peptide function compared with the parent polypeptide (confocal imaging)” value (A549 cells [3]) was “stronger than that of the parent Jilin-2004(H5N1)-M2-45-62 polypeptide”.

In the case of “DRLFFKRIYRRLKYRLKRRPST [Jilin-2004(H5N1)-M2-44-65 mut27]”, the “cell-penetrating peptide function compared with the parent polypeptide” value (293T cells) is reported as “stronger than that of the parent Jilin-2004(H5N1)-M2-44-65 polypeptide” and the “ability to carry small RNA into cells compared with the transfection reagent RNAiMax group, qPCR” value (A549 cells [2]) is reported as “stronger than the transfection reagent RNAiMax group”.

In the case of “DRLFFKCIYRRLKYRLKRRPST [Jilin-2004(H5N1)-M2-44-65 mut26]”, the “cell-penetrating peptide function compared with the parent polypeptide” value (293T cells) is reported as “stronger than that of the parent Jilin-2004(H5N1)-M2-44-65 polypeptide”, the “cell-penetrating peptide function compared with the parent polypeptide” value (A549 cells [1]) is reported as “stronger than that of the parent Jilin-2004(H5N1)-M2-44-65 polypeptide” and the “ability to carry small RNA into cells compared with the transfection reagent RNAiMax group, qPCR” value (A549 cells [2]) is reported as “stronger than the transfection reagent RNAiMax group”.

With “DRLFFKCIYRRLKYGLKRRPST [Jilin-2004(H5N1)-M2-44-65 mut25]” the “cell-penetrating peptide function compared with the parent polypeptide” value (MRCS cells) was “stronger than that of the parent Jilin-2004(H5N1)-M2-44-65 polypeptide”, the “cell-penetrating peptide function compared with the parent polypeptide” value (293T cells) was “stronger than that of the parent Jilin-2004(H5N1)-M2-44-65 polypeptide” and the “cell-penetrating peptide function compared with the parent polypeptide” value (A549 cells [1]) was “stronger than that of the parent Jilin-2004(H5N1)-M2-44-65 polypeptide”.

“RLFFKCIYRRLKYGLKRG [Jilin-2004(H5N1)-M2-45-62]” was tested, and the “entry effect compared with other fragments in different cell lines” value [4] was “even better entry effects”, the cell penetration properties (HeLa cells) was “consistent with the results obtained using A549 cells” and the “ability to carry small RNA compared with TAT at the same concentration” value (A549 cells [5]) was “significantly stronger”. For the same sequence, the “carrying FAM-labeled small RNA into cells” value (A549 cells [5]) was “can all carry small RNA into cells”, the cell penetration properties (MRCS cells) was “consistent with the results obtained using A549 cells” and the “carrying NS1-GFP plasmid into cells and GFP expression” value (HEK293T cells) was “could carry NS1-GFP plasmid into HEK293 cells, and GFP protein was expressed in the nucleus”. For the same sequence, the cell entry (A549 cells [1]) was “still had a significant cell entry effect; also recorded: entered A549 cells”, the “cell entry at lower concentrations” value (A549 cells [1]) was “could still enter A549 cells” and the “cell entry effect compared with TAT positive control” value (A549 cells [1]) was “stronger than that of the TAT polypeptide”. The “cell entry effect compared with existing cell-penetrating peptides (Table 4)” value (A549 cells [1]) was “significantly better cell entry effects than existing cell-penetrating peptides”, the “cell entry of FITC-labeled polypeptide” value (A549 cells [1]) was “could achieve significant A549 cell entry at all concentrations tested” and the cell-penetrating peptide effect (A549 cells [1]) was “a good cell-penetrating peptide effect”. For the same sequence, the “cell-penetrating peptide function compared with positive control TAT” value (A549 cells [1]) was “stronger than that of the positive control TAT”, the “entry effect compared with FITC-labeled TAT (positive control)” value (A549 cells [1]) was “much stronger than FITC-labeled TAT polypeptide” and the “ability to carry small RNA (PGY-sRNA-26) into cells, qPCR” value (A549 cells [2]) was “had the ability to carry small RNA into the cells”. For the same sequence, the “ability to carry small RNA into cells compared with the transfection reagent RNAiMax group, qPCR” value (A549 cells [2]) was “stronger than the transfection reagent RNAiMax group”, the “ability to carry small RNA into cells, qPCR” value (A549 cells [2]) was “all had the ability to carry small RNA into cells” and the “ability to carry small RNA compared with TAT at the same concentration” value (A549 cells [6]) was “significantly stronger”. The “carrying Cy3-labeled small RNA into cells” value (A549 cells [6]) was “can carry small RNA into cells”, the “ability to carry PGY-dsRNA-6 compared with positive control TAT” value [7] was “stronger than that of the positive control TAT” and the “carrying PGY-dsRNA-6 into cells and fulfilling its function (luciferase reporter)” value [7] was “could all carry PGY-dsRNA-6 into cells and fulfill its function”. The “cell-penetrating peptide function (confocal imaging)” value (A549 cells [3]) was “all had cell-penetrating peptide functions”.

With “DRLFFKCIYRRLKYGLKRGPST [Jilin-2004(H5N1)-M2-44-65]” the “entry effect compared with other fragments in different cell lines” value [4] was “even better entry effects”, the “cell-penetrating peptide function compared with positive control TAT” value (MRCS cells) was “stronger than that of the positive control TAT” and the “cell-penetrating peptide function compared with positive control TAT” value (293T cells) was “stronger than that of the positive control TAT”. For the same sequence, the “carrying Cy3-labeled small RNA into cells” value (A549 cells [8]) was “can carry small RNA into cells”, the “effect compared with transfection reagent RNAiMax” value (A549 cells [8]) was “stronger than that of the transfection reagent RNAiMax” and the “cell entry effect compared with existing cell-penetrating peptides (Table 4)” value (A549 cells [1]) was “significantly better cell entry effects than existing cell-penetrating peptides”. The “cell-penetrating peptide function compared with positive control TAT” value (A549 cells [1]) was “stronger cell-penetrating peptide functions than that of the positive control TAT”, the “entry effect compared with other C-terminally truncated polypeptides” value (A549 cells [1]) was “even better entry effects than other polypeptides” and the “ability to carry small RNA into cells compared with the transfection reagent RNAiMax group, qPCR” value (A549 cells [2]) was “stronger than the transfection reagent RNAiMax group”. For the same sequence, the “ability to carry small RNA into cells, qPCR” value (A549 cells [2]) was “all had the ability to carry small RNA into cells”, the “carrying Cy3-labeled small RNA into cells (super high resolution microscope)” value (A549 cells [9]) was “can carry Cy3-labeled small RNA into A549 cells” and the “effect compared with RNAiMax or TAT (super high resolution microscope)” value (A549 cells [9]) was “stronger than that of the transfection reagent RNAiMax or of TAT”.

With “RLFFKCIYRRLKYGLKTG [Jilin-2004(H5N1)-M2-45-62 mut61]” the “ability to carry small RNA into cells compared with the transfection reagent RNAiMax group, qPCR” value (A549 cells [2]) was “stronger than the transfection reagent RNAiMax group” and the “cell-penetrating peptide function compared with the parent polypeptide (confocal imaging)” value (A549 cells [3]) was “stronger than that of the parent Jilin-2004(H5N1)-M2-45-62 polypeptide”.

For “DRFFFKRIYRRLKYRLKRRPST [Jilin-2004(H5N1)-M2-44-65 mut8]”, the “cell-penetrating peptide function compared with the parent polypeptide” value (MRCS cells) was “stronger than that of the parent Jilin-2004(H5N1)-M2-44-65 polypeptide”, the “cell-penetrating peptide function compared with the parent polypeptide” value (293T cells) was “stronger than that of the parent Jilin-2004(H5N1)-M2-44-65 polypeptide” and the “ability to carry small RNA compared with the other two polypeptides tested” value (A549 cells [8]) was “even stronger”. For the same sequence, the “carrying Cy3-labeled small RNA into cells” value (A549 cells [8]) was “can carry small RNA into cells”, the “effect compared with transfection reagent RNAiMax” value (A549 cells [8]) was “stronger than that of the transfection reagent RNAiMax” and the “cell-penetrating peptide function compared with the parent polypeptide” value (A549 cells [1]) was “stronger than that of the parent Jilin-2004(H5N1)-M2-44-65 polypeptide”.

“RRFFFKCIYRRLKYGLKRGPST [Jilin-2004(H5N1)-M2-44-65 mut17]” was tested, and the “cell-penetrating peptide function compared with the parent polypeptide” value (293T cells) was “stronger than that of the parent Jilin-2004(H5N1)-M2-44-65 polypeptide” and the “ability to carry small RNA into cells compared with the transfection reagent RNAiMax group, qPCR” value (A549 cells [2]) was “stronger than the transfection reagent RNAiMax group”.

“SLFFKCIYRRLKYGLKRG [Jilin-2004(H5N1)-M2-45-62 mut45]” was tested, and the “ability to carry small RNA into cells compared with the transfection reagent RNAiMax group, qPCR” value (A549 cells [2]) was “stronger than the transfection reagent RNAiMax group” and the “cell-penetrating peptide function compared with the parent polypeptide (confocal imaging)” value (A549 cells [3]) was “stronger than that of the parent Jilin-2004(H5N1)-M2-45-62 polypeptide”.

“FFKCIYRRLKYGLKRGPS [Jilin-2004(H5N1)-M2-47-64]” was tested, and the cell penetration properties (HeLa cells) was “consistent with the results obtained using A549 cells”, the cell penetration properties (MRCS cells) was “consistent with the results obtained using A549 cells” and the cell entry (A549 cells [1]) was “entered A549 cells”. The “cell entry at lower concentrations” value (A549 cells [1]) was “could still enter A549 cells” and the “cell entry effect compared with TAT positive control” value (A549 cells [1]) was “stronger than that of the TAT polypeptide”.

— patent US20220169680A1 (priority 2018, published 2022)
